We go through two compounds from patent US8178577B2, “Tricyclic derivatives as potent and selective histone deacetylase inhibitors” (Shenzhen Chipscreen Biosciences Ltd., priority 2008, dated 2012).

The subject of experiment [1] is total HDAC enzyme. Kind of experiment: In vitro inhibition of total HDAC enzyme activity (BIOMOL HDAC Fluorimetric Assay/Drug Discovery Kit, HeLa extract). It counts as biochemical. As for the experimental part: Measurement of In Vitro Inhibition of Total HDAC Enzyme Activity:
The in vitro inhibition of total HDAC enzyme was determined by HDAC Fluorimetric Assay/Drug Discovery Kit (BIOMOL) according to manufacture's instruction. • 1. Add Assay buffer, diluted trichostatin A or test inhibitor to appropriate wells of the microtiter plate. Following table lists examples of various assay types and the additions required for each test.
• 2. Add diluted HeLa extract or other HDAC sample to all wells except those that are to be “No Enzyme Controls” (Blank). • 3. Allow diluted Fluor de LYS™ Substrate and the samples in the microtiter plate to equilibrate to assay temperature (25° C.). • 4. Initiate HDAC reactions by adding diluted substrate (25 μl) to each well and mixing thoroughly. • 5. Allow HDAC reactions to proceed for desired length of time and then stop them by addition of Fluor de Lys™ Developer (50 μl). Incubate plate at room temperature (25° C.) for 10-15 min. • 6. Read samples in a microtiter-plate reading fluorimeter capable of excitation at a wavelength in the range 350-380 nm and detection of emitted light in the range 440-460 nm. Measurement of In Vivo Inhibition of HDAC Subtype Activity: […]

Experiment [2] concerns HDAC4/5. Description: MEF2 reporter gene assay in HeLa cells. It counts as cell-based. Particulars: relative to SAHA, 24 hours. The method, then:
HDAC subtype selectivity inhibition assay of tested compounds was carried out by several reporter gene assays experiments. Briefly, HeLa cells were seeded in 96-well plates the day before transfection to give a confluence of 50-80%. Cells were transfected with one of reporter gene plasmids containing a promoter sequences or response elements upstream of a luciferase gene construct using FuGene6 transfection reagent according to the manufacturer's instructions (Roche). The promoter or response elements including p21-promoter, gdf11-promoter, serum response element (SRE), MEF-binding element were fused upstream to the luciferase gene reporter construct. For normalizing the transfection efficiency, a GFP expression plasmid was cotransfected. Cells were allowed to express protein for 24 hours followed by addition of individual compounds or the vehicle (DMSO). 24 hours later the cells were harvested, and the luciferase assays were performed using the luciferase assay kit according to the manufacturer's instructions (Promega). To normalize the data from the luciferase assays, β-galactosidase activity from transfected cells was measured using a kit (Promega) as instructed by the manufacturer.
(In general: A reporter such as luciferase makes a cellular process visible.)

Experiment [3] deals with T1, (Homo sapiens, UniProt Q9UBN7).
T1 construct: endogenous in cells; host or cells: A549
T1 sequence (Q9UBN7 1-1215): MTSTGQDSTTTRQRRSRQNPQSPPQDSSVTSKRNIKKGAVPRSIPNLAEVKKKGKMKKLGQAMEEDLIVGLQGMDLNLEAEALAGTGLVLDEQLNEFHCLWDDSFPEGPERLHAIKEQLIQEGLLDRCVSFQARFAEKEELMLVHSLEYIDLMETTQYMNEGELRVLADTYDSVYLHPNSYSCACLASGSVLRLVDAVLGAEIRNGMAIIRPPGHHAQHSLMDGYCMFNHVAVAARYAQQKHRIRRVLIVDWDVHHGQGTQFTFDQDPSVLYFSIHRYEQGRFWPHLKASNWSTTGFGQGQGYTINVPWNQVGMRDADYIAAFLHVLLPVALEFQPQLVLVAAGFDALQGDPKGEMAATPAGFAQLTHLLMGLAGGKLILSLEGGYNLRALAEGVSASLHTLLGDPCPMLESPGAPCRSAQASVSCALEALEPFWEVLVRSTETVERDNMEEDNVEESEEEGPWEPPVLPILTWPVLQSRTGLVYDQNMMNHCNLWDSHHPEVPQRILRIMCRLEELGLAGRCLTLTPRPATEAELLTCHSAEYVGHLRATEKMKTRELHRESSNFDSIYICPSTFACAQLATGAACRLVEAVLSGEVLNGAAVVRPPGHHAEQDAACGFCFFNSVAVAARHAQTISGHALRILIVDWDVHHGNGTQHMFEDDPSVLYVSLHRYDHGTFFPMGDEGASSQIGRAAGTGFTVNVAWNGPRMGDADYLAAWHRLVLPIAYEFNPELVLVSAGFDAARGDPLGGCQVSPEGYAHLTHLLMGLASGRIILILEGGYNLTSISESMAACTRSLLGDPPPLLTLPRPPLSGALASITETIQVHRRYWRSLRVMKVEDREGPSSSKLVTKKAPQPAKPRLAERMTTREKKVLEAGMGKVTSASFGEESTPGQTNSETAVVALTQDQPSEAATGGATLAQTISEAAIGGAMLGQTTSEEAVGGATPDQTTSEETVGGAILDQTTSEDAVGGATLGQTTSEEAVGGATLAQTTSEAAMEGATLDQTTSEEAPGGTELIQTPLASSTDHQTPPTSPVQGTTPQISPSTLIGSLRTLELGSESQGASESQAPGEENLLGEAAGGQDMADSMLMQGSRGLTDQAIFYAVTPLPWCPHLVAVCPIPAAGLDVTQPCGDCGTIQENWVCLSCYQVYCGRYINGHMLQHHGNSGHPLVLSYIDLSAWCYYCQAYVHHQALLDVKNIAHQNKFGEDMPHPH
Description: Cytoblot assay of acetylation of α-tubulin in A549 cells. The settings on record: 24 hours. It is filed as cell-based. As for the experimental part: This assay is used to measure in vivo inhibition of HDAC6 in a cytoblot assay.
• 1. […] Compounds were added and incubated for 24 hours at 37° C. • 3.

On to `Nc1cc(F)ccc1NC(=O)CCCCCNC(=O)C=C1c2ccccc2-c2ccccc21` [Example 12, 6-(2-(9H-fluoren-9-ylidene)acetamido)-N-(2-amino-4-fluorophenyl)hexanamide], for which the “% of Inhibition on total HDAC enzyme at 30 μM” value in experiment [1] is recorded as 50%. Also, the “% of SAHA Response for HDAC4/5 at 10 μM (MEF2 reporter gene)” value in experiment [2] came out at 101%. Moreover, in experiment [3], the “Fold of tubulin acetylation (HDAC7 at 10 μM)” value is on record as 0.79 Fold.
On the same counts, the results for `Nc1ccccc1NC(=O)CCCCCNC(=O)C=C1c2ccccc2-c2ccccc21` [Example 13, 6-(2-(9H-fluoren-9-ylidene)acetamido)-N-(2-aminophenyl)hexanamide] are 50%, 118% and 0.74 Fold.
